Results taken from patent US11951105B2 (Lake O'Hara LLC, priority 2020, dated 2024).

What was measured:
[1] = tested on: CYP2D6; settings: cited from earlier work
[2] = cited from earlier work
[3] = PBPK modeling of schizophrenia patients treated according to modified dosing regimens; design: species or system human; settings: for Days Reduced to Reach Pharmacokinetic Endpoints: EC80 / Days Reduced to Reach Pharmacokinetic Endpoints: Steady State: modified regimen of Table F vs FDA label, Obese
Text: In order to simulate brexpiprazole under various conditions, a whole-body PBPK model was constructed to capture the drug's kinetics in major tissues. Model tissue compartments included adipose, bone, brain, large intestine, small intestine, heart, kidney, liver, lung, muscle, spleen, stomach, and skin tissues, as well as venous and arterial blood compartments. In order to accurately capture first-pass clearance effects on the drug, the model also included correct representation of the gastrointestinal tract organs and the liver. […] Drug distribution into each tissue compartment was modeled assuming perfusion-limited kinetics, with partitioning into tissue described by a partition coefficient (Kp) estimated using methods described by Poulin and Theil (2002). Brexpiprazole-specific biochemical parameters such as the log of octanol:water partition coefficient (log P), negative log acid dissociation constant (pKa), fraction unbound in the plasma (fup), blood:plasma concentration ratio (BP), and clearance were obtained from literature; additional physiochemical properties used to calculate Kps were obtained via DrugBank. […] Simulations were carried out in a virtual population of 500 normal-weight and 500 obese individuals with age- and sex-specific physiological parameters (i.e. tissue flows and volumes) sampled from the National Health and Nutrition Examination Survey (NHANES) dataset.
PBPK Modeling of Schizophrenia Patients Treated with Higher Doses According to Modified Methods
A modified dosing regimen was developed so that obese and CYP2D6 PM patients reach therapeutic levels earlier (Table F). […] On day 8, patients returned to administering the recommended dose once daily. […] On day 15, patients returned to administering the recommended dose once daily.

[4] = brexpiprazole patients; cited from earlier work
[5] = target: CYP3A4 (Homo sapiens, UniProt P08684); settings: based on the literature; cited from earlier work
Chain of CYP3A4 (P08684 whole entry): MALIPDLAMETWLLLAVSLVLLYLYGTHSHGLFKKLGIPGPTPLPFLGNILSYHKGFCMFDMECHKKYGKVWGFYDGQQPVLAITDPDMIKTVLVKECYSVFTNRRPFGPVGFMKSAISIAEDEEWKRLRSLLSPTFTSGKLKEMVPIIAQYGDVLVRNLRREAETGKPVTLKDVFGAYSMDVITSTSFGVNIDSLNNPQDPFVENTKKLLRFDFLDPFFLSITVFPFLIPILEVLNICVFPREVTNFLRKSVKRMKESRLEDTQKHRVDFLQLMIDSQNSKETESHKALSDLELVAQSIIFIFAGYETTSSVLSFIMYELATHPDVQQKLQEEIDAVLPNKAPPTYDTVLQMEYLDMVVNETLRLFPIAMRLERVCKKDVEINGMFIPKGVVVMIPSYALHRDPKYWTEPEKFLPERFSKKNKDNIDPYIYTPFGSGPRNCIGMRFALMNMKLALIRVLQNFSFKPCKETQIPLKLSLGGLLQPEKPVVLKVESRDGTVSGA

In the case of O=c1ccc2ccc(OCCCCN3CCN(c4cccc5sccc45)CC3)cc2[nH]1 [brexpiprazole, 7-{4-[4-(1-Benzothiophen-4-yl)piperazin-1-yl]butoxy}quinolin-2(1H)-one], the “decrease of baseline clearance by CYP2D6 PM status” value ([1]; CYP2D6 poor metabolizers) is listed as about 30%, the “share of brexpiprazole clearance due to CYP2D6” value ([1]; based on the literature) is listed as 43.3% and the “share of brexpiprazole clearance due to other routes” value ([2]; based on the literature) is listed as 10%. The “effect of weight on the pharmacokinetics of brexpiprazole” value ([2]; previous studies) was “less than 20%”, the renal clearance ([2]; share of clearance, model assumption) was about 1% and the “Days Reduced to Reach Pharmacokinetic Endpoints: EC80” value ([3]; CYP2D6 EM) was 3 days. For the same compound, the “Days Reduced to Reach Pharmacokinetic Endpoints: Steady State” value ([3]; CYP2D6 EM) was -4 days, the “Days Reduced to Reach Pharmacokinetic Endpoints: EC80” value ([3]; CYP2D6 PM) was 5 days and the “Days Reduced to Reach Pharmacokinetic Endpoints: Steady State” value ([3]; CYP2D6 PM) was -29 days. For the same compound, the “days faster to reach therapeutic concentrations than once daily dosing” value ([3]; schizophrenia, normal-weight CYP2D6 PM, Modified Dosing Regimen 3) was “three”, the “days faster to reach therapeutic concentrations than with FDA label dosing” value ([3]; schizophrenia, obese CYP2D6 EM, twice the daily doses for the first 7 days (Regimen 1)) was “three” and the “days faster to reach therapeutic concentrations than once daily dosing” value ([3]; schizophrenia, obese CYP2D6 PM, twice the daily doses for the first 14 days (Regimen 2)) was “five”. The akathisia rates [4] was “dose-dependent” and the “share of brexpiprazole clearance due to CYP3A4” value [5] was 46.7%.
